The values below are quoted from earlier work in patent US6996473B2, “Method for screening and producing compound libraries” (Lion Bioscience AG, priority 1998, dated 2006).

The conditions of series [1]: Stomach.
In the next series the test system is rabbit intestinal tissue. The note with it: intestinal transport mechanism represented by the standard.

Structures can show the parent of a compound that is named as a salt. Where two headings read alike, the source gives them in different places.

As usually defined, the Solubility is the concentration that dissolves in the medium under given conditions. What is called Cmax is the highest concentration seen after dosing. As a reminder, the Tmax is the time from dosing to the highest level. As to `Nc1nc(O)c2ncn(COC(CO)CO)c2n1` [Gancyclovir, 9-(1,3-dihydroxy-2-propoxymethyl) guanine, monosodium salt], the Solubility in series [1] was 31 mg/mL. Further, the Cmax (Clinical 1505a) is 550 ng/mL and the Cmax (Clinical 1505b) is 590 ng/mL. The Tmax (Clinical 1505a) is 1.43 h and the Tmax (Clinical 1505b) is 1.43 h. The “bioavailability of fasted patients in clinical trials” value (fasted patients, oral) is on record as 3-20%.

In the case of `O=C[C@H](O)[C@@H](O)[C@H](O)[C@H](O)CO` [D-glucose], the Transport mechanism entry in the series with rabbit intestinal tissue is on record as “Carrier-mediated Influx”.

Regarding `OC[C@@H](O)[C@@H](O)[C@H](O)[C@H](O)CO` [mannitol], the Transport mechanism entry in the series on rabbit intestinal tissue is reported as “Passive Paracellular”.
